In brackets after ≈: the same amount, converted by molar mass. Values belong to the compound of their own block, whether it stands above or below them.
Key:
Trypanosoma cruzi [1] = assay: Antitrypanosomal activity against trypomastigotes of Trypanosoma cruzi Tulahuen C2C4 containing lacZ gene in rat L6 cells after 4 days; format: functional, organism-based; details: L6, 96 h
Serratia marcescens = assay: Antibacterial activity against Serratia marcescens after 24 hrs by agar dilution method; format: functional
Salmonella typhimurium = assay: Antibacterial activity against Salmonella Typhimurium after 24 hrs by agar dilution method; format: functional, Salmonella enterica subsp. enterica serovar Typhimurium; details: Salmonella enterica
Escherichia coli = assay: Antibacterial activity against Escherichia coli after 24 hrs by agar dilution method; format: functional
Shigella flexneri = assay: Antibacterial activity against Shigella flexneri after 24 hrs by agar dilution method; format: functional
Proteus vulgaris = assay: Antibacterial activity against Proteus vulgaris after 24 hrs by agar dilution method; format: functional
Shigella sonnei = assay: Antibacterial activity against Shigella sonnei after 24 hrs by agar dilution method; format: functional
Shigella boydii = assay: Antibacterial activity against Shigella boydii after 24 hrs by agar dilution method; format: functional
Pseudomonas aeruginosa = assay: Antibacterial activity against Pseudomonas aeruginosa after 24 hrs by agar dilution method; format: functional
[2] = tested on: Salmonella enterica subsp. enterica; assay: Antibacterial activity against Salmonella enteritidis after 24 hrs by agar dilution method; format: functional, Salmonella enterica subsp. enterica serovar Enteritidis
Proteus mirabilis = assay: Antibacterial activity against Proteus mirabilis after 24 hrs by agar dilution method; format: functional
Streptococcus pneumoniae = assay: Antibacterial activity against Streptococcus pneumoniae after 24 hrs by agar dilution method; format: functional
Staphylococcus aureus = assay: Antibacterial activity against Staphylococcus aureus after 24 hrs by agar dilution method; format: functional
Aeromonas hydrophila = assay: Antibacterial activity against Aeromonas hydrophila after 24 hrs by agar dilution method; format: functional
Citrobacter freundii = assay: Antibacterial activity against Citrobacter freundii after 24 hrs by agar dilution method; format: functional
Klebsiella pneumoniae = assay: Antibacterial activity against Klebsiella pneumoniae after 24 hrs by agar dilution method; format: functional
[3] = tested on: Staphylococcus epidermidis; assay: Antibacterial activity against Staphylococcus epidermidis after 24 hrs by agar dilution method; format: functional
Staphylococcus = assay: Antibacterial activity against Staphylococcus albus after 24 hrs by agar dilution method; format: functional
Streptococcus = assay: Antibacterial activity against gamma-streptococcus after 24 hrs by agar dilution method; format: functional
Enterococcus faecalis = assay: Antibacterial activity against Enterococcus faecalis after 24 hrs by agar dilution method; format: functional
Morganella morganii = assay: Antibacterial activity against Morganella morganii after 24 hrs by agar dilution method; format: functional
Trypanosoma cruzi [4] = assay: Antitrypanosomal activity against Trypanosoma cruzi DM28 epimastigotes at 200 ug/ml after 96 hrs; format: functional

Compound: CCn1cc(C(=O)O)c(=O)c2cc(F)c(Sc3ccc(F)cc3)c(Sc3ccc(F)cc3)c21
- IC50 (Trypanosoma cruzi [1]): 6.2 µg/mL (≈ 12.7 µM)

Compound: CCn1cc(C(=O)O)c(=O)c2cc(F)c(OCc3ccccc3)c(OCc3ccccc3)c21
- IC50 (Trypanosoma cruzi [1]): 1.3 µg/mL (≈ 2.91 µM)

Compound: CCn1cc(C(=O)O)c(=O)c2cc(Sc3ccccc3)c(Sc3ccccc3)c(Sc3ccccc3)c21
- IC50 (Trypanosoma cruzi [1]): 39.9 µg/mL (≈ 73.7 µM)

Compound: CCn1cc(C(=O)O)c(=O)c2cc(F)c(Sc3ccc(Cl)cc3)c(Sc3ccc(Cl)cc3)c21
- IC50 (Trypanosoma cruzi [1]): 16.3 µg/mL (≈ 31.3 µM)

Compound: CCn1cc(C(N)=O)c(=O)c2cc(F)c(Sc3ccccc3)c(Sc3ccccc3)c21
- IC50 (Trypanosoma cruzi [1]): > 90 µg/mL

Compound: CCn1cc(C(=O)O)c(=O)c2cc(F)c(Sc3ccccc3)c(Sc3ccccc3)c21
- IC50 (Trypanosoma cruzi [1]): 19.3 µg/mL (≈ 42.7 µM)

Compound: O=C(O)c1cn(C2CC2)c2c(F)c(Oc3ccccc3)c(F)cc2c1=O
- MIC (Serratia marcescens): 12.5 µg/mL (≈ 35 µM)
- MIC (Salmonella typhimurium): 3.13 µg/mL (≈ 8.76 µM)
- MIC (Escherichia coli): 3.13 µg/mL (≈ 8.76 µM)
- MIC (Shigella flexneri): > 25 µg/mL
- MIC (Proteus vulgaris): 6.25 µg/mL (≈ 17.5 µM)
- MIC (Shigella sonnei): 1.56 µg/mL (≈ 4.37 µM)
- MIC (Shigella boydii): 1.56 µg/mL (≈ 4.37 µM)
- MIC (Pseudomonas aeruginosa): 12.5 µg/mL (≈ 35 µM)
- MIC [2]: 3.13 µg/mL (≈ 8.76 µM)
- MIC (Proteus mirabilis): 6.25 µg/mL (≈ 17.5 µM)
- MIC (Streptococcus pneumoniae): 0.098 µg/mL (≈ 0.274 µM)
- MIC (Staphylococcus aureus): 0.39 µg/mL (≈ 1.09 µM)
- MIC (Aeromonas hydrophila): 6.25 µg/mL (≈ 17.5 µM)
- MIC (Citrobacter freundii): 1.56 µg/mL (≈ 4.37 µM)
- MIC (Klebsiella pneumoniae): 1.56 µg/mL (≈ 4.37 µM)
- MIC [3]: 1.56 µg/mL (≈ 4.37 µM)
- MIC (Staphylococcus): 1.56 µg/mL (≈ 4.37 µM)
- MIC (Streptococcus): > 25 µg/mL
- MIC (Enterococcus faecalis): 12.5 µg/mL (≈ 35 µM)
- IC50 (Trypanosoma cruzi [1]): > 90 µg/mL
- MIC (Morganella morganii): 3.13 µg/mL (≈ 8.76 µM)

Compound: CCOC(=O)c1cn(CC)c2c(Sc3ccccc3)c(Sc3ccccc3)c(F)cc2c1=O
- IC50 (Trypanosoma cruzi [1]): 6 µg/mL (≈ 12.5 µM)

Compound: CCn1cc(C(=O)O)c(=O)c2ccc(C)nc21 [NALIDIXIC ACID]
- Activity (Trypanosoma cruzi [4]): 60%

Compound: CCn1cc(C(=O)O)c(=O)c2cc(OCc3ccccc3)c(OCc3ccccc3)c(OCc3ccccc3)c21
- IC50 (Trypanosoma cruzi [1]): 2.5 µg/mL (≈ 4.67 µM)

Compound: CCn1cc(C(=O)O)c(=O)c2cc(F)c(OCc3ccccc3)c(F)c21
- MIC (Serratia marcescens): > 25 µg/mL
- MIC (Salmonella typhimurium): 25 µg/mL (≈ 69.6 µM)
- MIC (Escherichia coli): > 25 µg/mL
- MIC (Shigella flexneri): > 25 µg/mL
- MIC (Proteus vulgaris): > 25 µg/mL
- MIC (Shigella sonnei): 12.5 µg/mL (≈ 34.8 µM)
- MIC (Shigella boydii): 25 µg/mL (≈ 69.6 µM)
- MIC (Pseudomonas aeruginosa): > 25 µg/mL
- MIC [2]: > 25 µg/mL
- MIC (Proteus mirabilis): > 25 µg/mL
- MIC (Streptococcus pneumoniae): 1.56 µg/mL (≈ 4.34 µM)
- MIC (Staphylococcus aureus): 6.25 µg/mL (≈ 17.4 µM)
- MIC (Aeromonas hydrophila): > 25 µg/mL
- MIC (Citrobacter freundii): 25 µg/mL (≈ 69.6 µM)
- MIC (Klebsiella pneumoniae): 6.25 µg/mL (≈ 17.4 µM)
- MIC [3]: 25 µg/mL (≈ 69.6 µM)
- MIC (Staphylococcus): > 25 µg/mL
- MIC (Streptococcus): > 25 µg/mL
- MIC (Enterococcus faecalis): > 25 µg/mL
- IC50 (Trypanosoma cruzi [1]): 18.3 µg/mL (≈ 50.9 µM)
- MIC (Morganella morganii): > 25 µg/mL

Continued, values first:

- IC50 (Trypanosoma cruzi [1]): > 90 µg/mL
Compound: CCn1cc(C(=O)O)c(=O)c2cc(F)c(Oc3ccccc3)c(Oc3ccccc3)c21

- IC50 (Trypanosoma cruzi [1]): > 90 µg/mL
Compound: CCn1cc(C(=O)OC)c(=O)c2cc(F)c(Oc3ccccc3)c(Oc3ccccc3)c21

- IC50 (Trypanosoma cruzi [1]): 57.1 µg/mL (≈ 126 µM)
Compound: CCn1cc(C(=O)O)c(=O)c2cc(F)c(Oc3ccc(O)cc3)c(Oc3ccc(O)cc3)c21

- MIC (Serratia marcescens): > 25 µg/mL
- MIC (Salmonella typhimurium): 25 µg/mL (≈ 69.6 µM)
- MIC (Escherichia coli): 25 µg/mL (≈ 69.6 µM)
- MIC (Shigella flexneri): > 25 µg/mL
- MIC (Proteus vulgaris): > 25 µg/mL
- MIC (Shigella sonnei): 12.5 µg/mL (≈ 34.8 µM)
- MIC (Shigella boydii): 6.25 µg/mL (≈ 17.4 µM)
- MIC (Pseudomonas aeruginosa): > 25 µg/mL
- MIC [2]: 25 µg/mL (≈ 69.6 µM)
- MIC (Proteus mirabilis): 25 µg/mL (≈ 69.6 µM)
- MIC (Streptococcus pneumoniae): 0.39 µg/mL (≈ 1.09 µM)
- MIC (Staphylococcus aureus): 0.78 µg/mL (≈ 2.17 µM)
- MIC (Aeromonas hydrophila): 25 µg/mL (≈ 69.6 µM)
- MIC (Citrobacter freundii): 12.5 µg/mL (≈ 34.8 µM)
- MIC (Klebsiella pneumoniae): 6.25 µg/mL (≈ 17.4 µM)
- MIC [3]: 6.25 µg/mL (≈ 17.4 µM)
- MIC (Staphylococcus): 12.5 µg/mL (≈ 34.8 µM)
- MIC (Streptococcus): > 25 µg/mL
- MIC (Enterococcus faecalis): > 25 µg/mL
- IC50 (Trypanosoma cruzi [1]): 18.3 µg/mL (≈ 50.9 µM)
- MIC (Morganella morganii): 25 µg/mL (≈ 69.6 µM)
Compound: CCn1cc(C(=O)O)c(=O)c2cc(F)c(Oc3ccc(C)cc3)c(F)c21

- IC50 (Trypanosoma cruzi [1]): > 90 µg/mL
Compound: CCn1cc(C#N)c(=O)c2cc(F)c(Oc3ccccc3)c(Oc3ccccc3)c21
